# Test results published in patent publication US20080009540A1, “Amorphous Atorvastatin Calcium” (priority 2004, published 2008).
# Where a name gives a salt, the structure may show the parent alone.
# Tests used:
# Format in all cases: physicochemical
# [1] = Storage stability of commercial-sized batch of amorphous atorvastatin calcium, Example 8 packaging
# Text: A commercial-sized batch of amorphous atorvastatin calcium was packaged as follows:
# a) amorphous atorvastatin calcium having a 6 percent w/w water content was initially placed into a clear polyethylene bag, air was removed, and the clear polyethylene bag was tied;
# b) the tied clear polyethylene bag was placed into a black polyethylene bag along with a silica gel pouch and a package of oxygen absorbent, and then the black polyethylene bag was purged with nitrogen and sealed; and
# c) the sealed black polyethylene bag was placed in a triple laminated bag along with a silica gel pouch, then the laminated bag was purged with nitrogen and sealed.
# [2] = Storage stability of amorphous atorvastatin calcium, Example 6 packaging (6 percent w/w water; nitrogen, silica gel)
# Text: The following packaging procedure was followed: 1) amorphous atorvastatin calcium having a 6 percent w/w water content was initially packed in a polyethylene bag, which was then tied; 2) the tied polyethylene bag was placed in a black polyethylene bag with a silica gel pouch under a nitrogen atmosphere and then sealed; 3) the sealed black polyethylene bag was placed in a triple laminated bag along with a silica gel pouch, was purged with nitrogen, and sealed; and 4) the sealed laminated bag was stored in a HDPE drum.
# table, where water was determined by the Karl Fischer method, and total organic impurities are expressed as area-percent, as determined by high performance liquid chromatography.
# [3] = Storage stability of amorphous atorvastatin calcium, Example 7 packaging (2 percent w/w moisture; nitrogen, silica gel, oxygen absorbent)
# Text: The following packaging procedure was followed: 1) amorphous atorvastatin calcium having a 2 percent w/w moisture content was placed in a white polyethylene bag, the bag was purged with nitrogen, and then the bag was tied; 2) the tied white polyethylene bag was placed into a black polyethylene bag, along with a silica gel pouch and a bag of oxygen absorbent, then the black bag was purged with nitrogen and sealed; 3) the sealed black polyethylene bag was placed into a triple laminated bag along with a silica gel pouch, and then the laminated bag was purged with nitrogen and sealed; and 4) the sealed laminated bag was stored in a HDPE drum.
# [4] = 25° C. and 60% relative humidity, 1 Month
# [5] = 25° C. and 60% relative humidity, 2 Month
# [6] = 25° C. and 60% relative humidity, 3 Month
# [7] = 25° C. and 60% relative humidity, Initial
# [8] = 40° C. and 75% relative humidity, 1 Month
# [9] = 40° C. and 75% relative humidity, 2 Month
# [10] = 40° C. and 75% relative humidity, 3 Month
# [11] = 40° C. and 75% relative humidity, 15 Days
# [12] = 40° C. and 75% relative humidity, 45 Days
# [13] = 40° C. and 75% relative humidity, Initial
# [14] = 25° C. and 60% relative humidity, 2 Months
# [15] = 25° C. and 60% relative humidity, 45 Days
# [16] = 40° C. and 75% relative humidity, 2 Months
# [17] = all three storage conditions, up to 2 Months
smiles,measurement,setting,value
"CC(C)c1c(C(=O)Nc2ccccc2)c(-c2ccccc2)c(-c2ccc(F)cc2)n1CC[C@@H](O)C[C@@H](O)CC(=O)O (relative stereo) [amorphous atorvastatin calcium, [R-(R*,R*)]-2-(4-fluorophenyl)-β,δ-dihydroxy-5-(1-methylethyl)-3-phenyl-4-[(phenylamino)carbonyl]-1H-pyrrole-1-heptanoic acid, calcium salt (2:1)]",Total Impurities,"[1]; 2 to 8° C., 1 Month",0.37 area-percent
same,Wt. Percent H2O,"[1]; 2 to 8° C., 1 Month",5.4 Wt. Percent
same,Total Impurities,"[1]; 2 to 8° C., 2 Month",0.36 area-percent
same,Wt. Percent H2O,"[1]; 2 to 8° C., 2 Month",5.3 Wt. Percent
same,Total Impurities,"[1]; 2 to 8° C., 3 Month",0.34 area-percent
same,Wt. Percent H2O,"[1]; 2 to 8° C., 3 Month",5.4 Wt. Percent
same,Total Impurities,"[1]; 2 to 8° C., Initial",0.35 area-percent
same,Wt. Percent H2O,"[1]; 2 to 8° C., Initial",5.4 Wt. Percent
same,Total Impurities,[1]; [4],0.41 area-percent
same,Wt. Percent H2O,[1]; [4],4.6 Wt. Percent
same,Total Impurities,[1]; [5],0.42 area-percent
same,Wt. Percent H2O,[1]; [5],4.8 Wt. Percent
same,Total Impurities,[1]; [6],0.40 area-percent
same,Wt. Percent H2O,[1]; [6],4.9 Wt. Percent
same,Total Impurities,[1]; [7],0.35 area-percent
same,Wt. Percent H2O,[1]; [7],5.4 Wt. Percent
same,Total Impurities,[1]; [8],0.45 area-percent
same,Wt. Percent H2O,[1]; [8],4.3 Wt. Percent
same,Total Impurities,[1]; [9],0.47 area-percent
same,Wt. Percent H2O,[1]; [9],4.5 Wt. Percent
same,Total Impurities,[1]; [10],0.48 area-percent
same,Wt. Percent H2O,[1]; [10],5.0 Wt. Percent
same,Total Impurities,[1]; [11],0.39 area-percent
same,Wt. Percent H2O,[1]; [11],4.8 Wt. Percent
same,Total Impurities,[1]; [12],0.45 area-percent
same,Wt. Percent H2O,[1]; [12],4.3 Wt. Percent
same,Total Impurities,[1]; [13],0.35 area-percent
same,Wt. Percent H2O,[1]; [13],5.4 Wt. Percent
same,Change during the storage periods,"[1]; all three storage conditions, up to 3 Month",did not change appreciably
same,Total Impurities,"[2]; 2 to 8° C., 2 Months",0.47 area-percent
same,Wt. Percent H2O,"[2]; 2 to 8° C., 2 Months",4.80 Wt. Percent
same,Total Impurities,"[2]; 2 to 8° C., 45 Days",0.46 area-percent
same,Wt. Percent H2O,"[2]; 2 to 8° C., 45 Days",4.50 Wt. Percent
same,Total Impurities,"[2]; 2 to 8° C., Initial",0.37 area-percent
same,Wt. Percent H2O,"[2]; 2 to 8° C., Initial",6.00 Wt. Percent
same,Total Impurities,[2]; [14],0.49 area-percent
same,Wt. Percent H2O,[2]; [14],3.97 Wt. Percent
same,Total Impurities,[2]; [15],0.51 area-percent
same,Wt. Percent H2O,[2]; [15],3.70 Wt. Percent
same,Total Impurities,[2]; [7],0.37 area-percent
same,Wt. Percent H2O,[2]; [7],6.00 Wt. Percent
same,Total Impurities,[2]; [16],0.50 area-percent
same,Wt. Percent H2O,[2]; [16],3.47 Wt. Percent
same,Total Impurities,[2]; [12],0.61 area-percent
same,Wt. Percent H2O,[2]; [12],3.49 Wt. Percent
same,Total Impurities,"[2]; 40° C. and 75% relative humidity, Initial, HPLC",0.37 area-percent
same,Wt. Percent H2O,"[2]; 40° C. and 75% relative humidity, Initial, Karl Fischer",6.00 Wt. Percent
same,Change during the storage periods,[2]; [17],did not change appreciably
same,Total Impurities,"[3]; 2 to 8° C., 1 Month",0.27 area-percent
same,Wt. Percent H2O,"[3]; 2 to 8° C., 1 Month",2.3 Wt. Percent
same,Total Impurities,"[3]; 2 to 8° C., 2 Months",0.30 area-percent
same,Wt. Percent H2O,"[3]; 2 to 8° C., 2 Months",2.6 Wt. Percent
same,Total Impurities,"[3]; 2 to 8° C., Initial",0.29 area-percent
same,Wt. Percent H2O,"[3]; 2 to 8° C., Initial",2.0 Wt. Percent
same,Total Impurities,[3]; [4],0.34 area-percent
same,Wt. Percent H2O,[3]; [4],2.4 Wt. Percent
same,Total Impurities,[3]; [14],0.38 area-percent
same,Wt. Percent H2O,[3]; [14],2.9 Wt. Percent
same,Total Impurities,[3]; [7],0.29 area-percent
same,Wt. Percent H2O,[3]; [7],2.0 Wt. Percent
same,Total Impurities,[3]; [8],0.41 area-percent
same,Wt. Percent H2O,[3]; [8],3.4 Wt. Percent
same,Total Impurities,[3]; [16],0.40 area-percent
same,Wt. Percent H2O,[3]; [16],3.2 Wt. Percent
same,Total Impurities,[3]; [11],0.34 area-percent
same,Wt. Percent H2O,[3]; [11],3.1 Wt. Percent
same,Total Impurities,[3]; [12],0.34 area-percent
same,Wt. Percent H2O,[3]; [12],3.2 Wt. Percent
same,Total Impurities,[3]; [13],0.29 area-percent
same,Wt. Percent H2O,[3]; [13],2.0 Wt. Percent
same,Change during the storage periods,[3]; [17],did not change appreciably
